The conditions of series [1]: patients on therapy; cited from earlier work.
A short description of series [2]: Partition coefficient in an octanol-water system. The series is classed as physicochemical. To be noted: berberine alone.
A further series can be described thus: Solubility. The series is classed as physicochemical.

This is an account of results in patent publication US10213418B2, “Therapeutic uses of berberine formulations” (TWi Biotechnology, Inc., priority 2013, dated 2019).

Read-outs that look alike come from different tables or passages of the source.

With `Nc1cc(C(F)(F)F)c(-c2cc(N3CCOCC3)nc(N3CCOCC3)n2)cn1` [BKM-120], in series [1], the maculopapular rash described is on record as 37 % of patients.

With `NC1(c2ccc(-c3nc4ccn5c(=O)[nH]nc5c4cc3-c3ccccc3)cc2)CCC1` [MK2206], the maculopapular rash described in series [1] is listed as 52 % of patients.

As to `CN(C)C/C=C/C(=O)Nc1cc2c(Nc3ccc(F)c(Cl)c3)ncnc2cc1O[C@H]1CCOC1` [afatinib], the papulopustular rash reported in series [1] is 90 % of patients.

Turning to `COc1ccc2cc3[n+](cc2c1OC)CCc1cc2c(cc1-3)OCO2` [berberine, 5,6-dihydro-9,10-dimethoxybenzo(g)-1,3-benzodioxolo (5,6-a) quinolizinium], the logP (usually the decadic logarithm of the partition coefficient of the neutral form, usually between octanol and water) in series [2] is 0.0294. For the same compound, the solubility (as a rule, how much of the substance goes into solution per volume) is 1570 µg/mL in the series “Solubility” (aqueous berberine solubility); 10 to 60 µg/mL in the series “Solubility” (medium containing SDS (sodium dodecyl sulfate), aqueous with cosolvent or surfactant or cyclodextrin, pH of between 4 and 7, read-out: berberine solubility in the presence of SDS); 1570 µg/mL in “Solubility” (water, aqueous berberine solubility, read-out: solubility).

With `Cn1cnc2c(F)c(Nc3ccc(Br)cc3Cl)c(C(=O)NOCCO)cc21` [selumetinib], the papulopustular rash reported in series [1] was 93 % of patients.

Consider ipilimumab: anti-CTLA-4 inhibitor, for which the maculopapular rash described in series [1] is 33 % of patients.

Regarding nivolumab: anti-PD-1 inhibitor, the maculopapular rash described in series [1] was 26 % of patients.
